Data taken from US9493446B2, “Orexin receptor antagonists which are [ortho bi-(hetero-)aryl]-[2-(meta bi-(hetero-)aryl)-pyrrolidin-1-yl]-methanone derivatives” (Actelion Pharmaceuticals Ltd, priority 2012, dated 2016).
Read-outs that look alike come from different tables or passages of the source.

Experiments:
human orexin-2 receptor = human orexin-2 receptor (Homo sapiens (Human), UniProt O43614); assay: Intracellular calcium measurement (FLIPR), CHO cells expressing human orexin-2 receptor, 3 nM orexin-A; type: cell-based; conditions: read-out: IC50 OX2
Outline: (§1)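 Antagonist is added 120 min before agonist. Fluo-4 AM-loaded CHO cells carry human orexin-1 or orexin-2 receptor, and calcium is read by FLIPR.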

orexin-1 = orexin-1 (Homo sapiens (Human), UniProt O43613); assay: Intracellular calcium measurement (FLIPR), CHO cells expressing human orexin-1 receptor, 3 nM orexin-A; type: cell-based; conditions: read-out: IC50 OX1
Outline: as §1

[1] = CHO cells expressing human orexin-2 receptor, FLIPR, 3 nM orexin-A, geometric mean if determined several times
[2] = CHO cells expressing human orexin-1 receptor, FLIPR, 3 nM orexin-A, geometric mean if determined several times

Sequence of human orexin-2 receptor (O43614 whole entry): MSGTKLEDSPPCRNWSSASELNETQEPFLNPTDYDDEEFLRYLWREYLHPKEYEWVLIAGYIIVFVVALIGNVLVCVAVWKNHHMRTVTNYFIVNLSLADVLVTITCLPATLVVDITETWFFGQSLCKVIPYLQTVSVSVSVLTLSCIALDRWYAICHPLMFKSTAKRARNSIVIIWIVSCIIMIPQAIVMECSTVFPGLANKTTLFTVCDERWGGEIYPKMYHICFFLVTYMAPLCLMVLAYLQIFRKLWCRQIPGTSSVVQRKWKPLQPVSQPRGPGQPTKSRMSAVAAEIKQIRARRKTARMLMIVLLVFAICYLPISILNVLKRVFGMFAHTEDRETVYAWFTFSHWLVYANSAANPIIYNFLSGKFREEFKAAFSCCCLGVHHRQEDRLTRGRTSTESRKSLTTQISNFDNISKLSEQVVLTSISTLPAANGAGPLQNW
Sequence of orexin-1 (O43613 whole entry): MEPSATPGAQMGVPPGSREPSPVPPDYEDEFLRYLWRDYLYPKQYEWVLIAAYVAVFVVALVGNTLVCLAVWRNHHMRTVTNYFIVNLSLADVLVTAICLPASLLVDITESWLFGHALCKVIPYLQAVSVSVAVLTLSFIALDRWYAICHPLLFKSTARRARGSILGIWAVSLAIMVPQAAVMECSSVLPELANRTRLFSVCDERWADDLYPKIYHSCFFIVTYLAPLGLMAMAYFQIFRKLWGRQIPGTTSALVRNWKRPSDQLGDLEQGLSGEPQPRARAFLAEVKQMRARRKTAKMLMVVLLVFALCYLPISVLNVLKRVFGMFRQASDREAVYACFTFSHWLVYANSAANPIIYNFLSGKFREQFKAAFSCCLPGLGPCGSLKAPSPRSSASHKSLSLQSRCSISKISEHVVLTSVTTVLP

| IC50 (human orexin-2 receptor; [1]) | IC50 (orexin-1; [2]) | Molecule | IC50 (orexin-1) | IC50 (human orexin-2 receptor) |
| --- | --- | --- | --- | --- |
| 117 nM | 493 nM | Cc1ccc(-n2nccn2)c(C(=O)N2CCC[C@H]2c2ncc(-c3ccccc3C(F)(F)F)[nH]2)c1 [compound 528, (5-Methyl-2-[1,2,3]triazol-2-yl-phenyl)-{(S)-2-[5-(2-trifluoromethyl-phenyl)-1H-imidazol-2-yl]-pyrrolidin-1-yl}-methanone] |  |  |
| 17 nM | 17 nM | CCc1ccccc1-c1nc([C@@H]2CCCN2C(=O)c2ccc(C)cc2-n2nccn2)no1 [compound 392, {(S)-2-[5-(2-Ethyl-phenyl)-[1,2,4]oxadiazol-3-yl]-pyrrolidin-1-yl}-(4-methyl-2-[1,2,3]triazol-2-yl-phenyl)-methanone] |  |  |
| 105 nM | 946 nM | Cc1ccc(-n2nccn2)c(C(=O)N2CCC[C@H]2c2nnc(-c3ccccc3C)o2)c1 [compound 441, (5-Methyl-2-[1,2,3]triazol-2-yl-phenyl)-[(S)-2-(5-o-tolyl-[1,3,4]oxadiazol-2-yl)-pyrrolidin-1-yl]-methanone] |  |  |
| 2 nM | 11 nM | CCOc1c(F)cccc1-c1nc([C@@H]2CCCN2C(=O)c2cc(C)ccc2-n2nccn2)no1 [compound 319, {(S)-2-[5-(2-Ethoxy-3-fluoro-phenyl)-[1,2,4]oxadiazol-3-yl]-pyrrolidin-1-yl}-(5-methyl-2-[1,2,3]triazol-2-yl-phenyl)-methanone] |  |  |
| 80 nM | 652 nM | CCc1ccccc1-c1nnc([C@@H]2CCCN2C(=O)c2cc(C)ccc2-n2nccn2)[nH]1 [compound 512, {(S)-2-[5-(2-Ethyl-phenyl)-4H-[1,2,4]triazol-3-yl]-pyrrolidin-1-yl}-(5-methyl-2-[1,2,3]triazol-2-yl-phenyl)-methanone] |  |  |
| 8 nM | 151 nM | COc1ccc(-n2nccn2)c(C(=O)N2CCC[C@H]2c2nc(-c3cccc(F)c3C)no2)c1 [compound 249, {(S)-2-[3-(3-Fluoro-2-methyl-phenyl)-[1,2,4]oxadiazol-5-yl]-pyrrolidin-1-yl}-(5-methoxy-2-[1,2,3]triazol-2-yl-phenyl)-methanone] |  |  |
| 116 nM | 171 nM | Cc1nc(C(=O)N2CCC[C@H]2c2nnc(-c3ccccc3OC(F)(F)F)[nH]2)c(-c2ccccc2)s1 [compound 506, (2-Methyl-5-phenyl-thiazol-4-yl)-{(S)-2-[5-(2-trifluoromethoxy-phenyl)-4H-[1,2,4]triazol-3-yl]-pyrrolidin-1-yl}-methanone] |  |  |
| 31 nM | 79 nM | Cc1ccc(C(=O)N2CCC[C@H]2c2nc(-c3ccccc3OC(F)F)no2)c(-n2nccn2)c1 [compound 187, {(S)-2-[3-(2-Difluoromethoxy-phenyl)-[1,2,4]oxadiazol-5-yl]-pyrrolidin-1-yl}-(4-methyl-2-[1,2,3]triazol-2-yl-phenyl)-methanone] |  |  |
| 27 nM | 76 nM | CCOc1ncccc1-c1noc([C@@H]2CCCN2C(=O)c2cccc(F)c2-c2ccn[nH]2)n1 [compound 216, {(S)-2-[3-(2-Ethoxy-pyridin-3-yl)-[1,2,4]oxadiazol-5-yl]-pyrrolidin-1-yl}-[3-fluoro-2-(2H-pyrazol-3-yl)-phenyl]-methanone] |  |  |
| 43 nM | 114 nM | O=C(c1cc(F)ccc1-c1ccn[nH]1)N1CCC[C@H]1c1nc(-c2ccccc2OC(F)(F)F)no1 [compound 167, [5-Fluoro-2-(2H-pyrazol-3-yl)-phenyl]-{(S)-2-[3-(2-trifluoromethoxy-phenyl)-[1,2,4]oxadiazol-5-yl]-pyrrolidin-1-yl}-methanone] |  |  |
| 4 nM | 16 nM | CCOc1ncccc1-c1nc([C@@H]2CCCN2C(=O)c2cc(OC)c(C)cc2-n2nccn2)no1 [compound 311, {(S)-2-[5-(2-Ethoxy-pyridin-3-yl)-[1,2,4]oxadiazol-3-yl]-pyrrolidin-1-yl}-(5-methoxy-4-methyl-2-[1,2,3]triazol-2-yl-phenyl)-methanone] |  |  |
| 29 nM | 276 nM | COc1cc(C(=O)N2CCC[C@H]2c2nc(-c3ccccc3C(F)(F)F)no2)c(-n2nccn2)cc1C [compound 182, (5-Methoxy-4-methyl-2-[1,2,3]triazol-2-yl-phenyl)-{(S)-2-[3-(2-trifluoromethyl-phenyl)-[1,2,4]oxadiazol-5-yl]-pyrrolidin-1-yl}-methanone] |  |  |
| 2 nM | 59 nM | COc1cc(C(=O)N2CCC[C@H]2c2noc(-c3cccc(F)c3C)n2)c(-n2nccn2)cc1C [compound 310, {(S)-2-[5-(3-Fluoro-2-methyl-phenyl)-[1,2,4]oxadiazol-3-yl]-pyrrolidin-1-yl}-(5-methoxy-4-methyl-2-[1,2,3]triazol-2-yl-phenyl)-methanone] |  |  |

Second part, the molecule before the results:

| Molecule | IC50 (human orexin-2 receptor; [1]) | IC50 (orexin-1; [2]) | IC50 (orexin-1) | IC50 (human orexin-2 receptor) |
| --- | --- | --- | --- | --- |
| COc1ccc(-c2ccccc2)c(C(=O)N2CCC[C@H]2c2nc(-c3cccc(Cl)c3C)no2)c1 [compound 101, {(S)-2-[3-(3-Chloro-2-methyl-phenyl)-[1,2,4]oxadiazol-5-yl]-pyrrolidin-1-yl}-(4-methoxy-biphenyl-2-yl)-methanone] | 6 nM | 9 nM |  |  |
| COc1cc(C(=O)N2CCC[C@H]2c2noc(-c3cc(C)ccc3OC)n2)c(-n2nccn2)cc1Cl [compound 350] | 2 nM | 36 nM |  |  |
| COc1cc(C(=O)N2CCC[C@H]2c2nc(-c3ccccc3Cl)no2)c(-n2nccn2)cc1C [compound 239] | 24 nM |  | 378 nM |  |
| COc1c(F)cccc1-c1nc([C@@H]2CCCN2C(=O)c2cccc(Cl)c2-n2nccn2)no1 [compound 363] | 111 nM | 155 nM |  |  |
| Cc1ccc(-n2nccn2)c(C(=O)N2CCC[C@H]2c2nc(-c3cccnc3OC(F)F)no2)c1 [Example 86, {(S)-2-[3-(2-Difluoromethoxy-pyridin-3-yl)-[1,2,4]oxadiazol-5-yl]-pyrrolidin-1-yl}-(5-methyl-2-[1,2,3]triazol-2-yl-phenyl)-methanone] | 40 nM | 103 nM |  |  |
| Cc1ccc(-c2ccccc2)c(C(=O)N2CCC[C@H]2c2nc(-c3cccc(Cl)c3C)no2)c1 [compound 88] | 11 nM | 49 nM |  |  |
| Cc1ccc(-n2nccn2)c(C(=O)N2CCC[C@H]2c2nc(-c3ncccc3C)no2)c1 [compound 83, {(S)-2-[3-(3-Methyl-pyridin-2-yl)-[1,2,4]oxadiazol-5-yl]-pyrrolidin-1-yl}-(5-methyl-2-[1,2,3]triazol-2-yl-phenyl)-methanone] | 302 nM | 3470 nM |  |  |
| Cc1ccc(-n2nccn2)c(C(=O)N2CCC[C@H]2c2nc(-c3cc(C)c(C)cn3)no2)c1 [compound 62, {(S)-2-[3-(4,5-Dimethyl-pyridin-2-yl)-[1,2,4]oxadiazol-5-yl]-pyrrolidin-1-yl}-(5-methyl-2-[1,2,3]triazol-2-yl-phenyl)-methanone] | 242 nM | > 1630 nM |  |  |
| Cc1ccc(-n2cccn2)c(C(=O)N2CCC[C@H]2c2nc(-c3cccc(Cl)c3C)no2)n1 [compound 109] |  |  | 976 nM | 199 nM |
| Cc1ccc(-n2nccn2)c(C(=O)N2CCC[C@H]2c2nc(-c3cccc(C)c3Cl)no2)c1 [compound 27] |  | 125 nM |  | 8 nM |
| COc1cc(C(=O)N2CCC[C@H]2c2cc(-c3ccccc3OC(F)(F)F)on2)c(-n2nccn2)cc1Cl [compound 437] | 15 nM |  | 62 nM |  |
| Cc1cccc(-c2oc(C)nc2C(=O)N2CCC[C@H]2c2nc(-c3ccccc3OC(F)(F)F)no2)c1 [compound 139, (2-Methyl-5-m-tolyl-oxazol-4-yl)-{(S)-2-[3-(2-trifluoromethoxy-phenyl)-[1,2,4]oxadiazol-5-yl]-pyrrolidin-1-yl}-methanone] | 62 nM | 124 nM |  |  |
| Cc1c(Cl)cccc1-c1noc([C@@H]2CCCN2C(=O)c2cc(Cl)ccc2-n2nccn2)n1 [compound 264] |  | 165 nM |  | 14 nM |
| COc1ccccc1-c1nnc([C@@H]2CCCN2C(=O)c2cc(C)ccc2-n2nccn2)[nH]1 [Example 464, {(S)-2-[5-(2-Methoxy-phenyl)-4H-[1,2,4]triazol-3-yl]-pyrrolidin-1-yl}-(5-methyl-2-[1,2,3]triazol-2-yl-phenyl)-methanone] | 124 nM | 49 nM |  |  |
| Cc1cc(CC(C)C)nc(-c2noc([C@@H]3CCCN3C(=O)c3cc(C)ccc3-n3nccn3)n2)c1 [compound 67, {(S)-2-[3-(6-Isobutyl-4-methyl-pyridin-2-yl)-[1,2,4]oxadiazol-5-yl]-pyrrolidin-1-yl}-(5-methyl-2-[1,2,3]triazol-2-yl-phenyl)-methanone] | 333 nM | 1250 nM |  |  |
| Cc1ccc(-n2nccn2)c(C(=O)N2CCC[C@H]2c2nc(-c3cccc(F)c3C)no2)c1 [compound 26, {(S)-2-[3-(3-Fluoro-2-methyl-phenyl)-[1,2,4]oxadiazol-5-yl]-pyrrolidin-1-yl}-(5-methyl-2-[1,2,3]triazol-2-yl-phenyl)-methanone] | 5 nM | 77 nM |  |  |
| Cc1ccc(C(=O)N2CCC[C@H]2c2nc(-c3ccccc3OC(F)(F)F)no2)c(-n2nccn2)c1 [compound 147, (4-Methyl-2-[1,2,3]triazol-2-yl-phenyl)-{(S)-2-[3-(2-trifluoromethoxy-phenyl)-[1,2,4]oxadiazol-5-yl]-pyrrolidin-1-yl}-methanone] | 15 nM | 31 nM |  |  |
| COc1cc(C(=O)N2CCC[C@H]2c2nc(-c3cccc(Cl)c3C)no2)c(-n2nccn2)cc1OC [compound 133] | 36 nM | 522 nM |  |  |
| {(S)-2-[5-(3-Chloro-2-methyl-phenyl)-[1,2,4]oxadiazol-3-yl]-pyrrolidin-1-yl}-[3-(2-chloro-phenyl)-5-methyl-isoxazol-4-yl]-methanone [Reference compound 8, reference compound] | 74 nM | 156 nM |  |  |
| Cc1ccc(-n2nccn2)c(C(=O)N2CCC[C@H]2c2nnc(-c3cccc(Cl)c3)o2)c1 [Example 455, {(S)-2-[5-(3-Chloro-phenyl)-[1,3,4]oxadiazol-2-yl]-pyrrolidin-1-yl}-(5-methyl-2-[1,2,3]triazol-2-yl-phenyl)-methanone] | 1690 nM | 835 nM |  |  |
